Measured values taken from patent US12297234B2, “Genetically encoded system for constructing and detecting biologically active agents” (The Regents of the University of Colorado, priority 2018, dated 2025).

Assays:
PTP1B [1] = biological target: T1, PTP1B (Homo sapiens, UniProt P18031); experiment: Binding-induced quenching of tryptophan fluorescence of PTP1B; set-up: species or system H. sapiens; conditions: FIG. 17C
T1 construct: made in house; host or cells: E. coli BL21 (B121 [sic])
T1 sequence (P18031 1-435): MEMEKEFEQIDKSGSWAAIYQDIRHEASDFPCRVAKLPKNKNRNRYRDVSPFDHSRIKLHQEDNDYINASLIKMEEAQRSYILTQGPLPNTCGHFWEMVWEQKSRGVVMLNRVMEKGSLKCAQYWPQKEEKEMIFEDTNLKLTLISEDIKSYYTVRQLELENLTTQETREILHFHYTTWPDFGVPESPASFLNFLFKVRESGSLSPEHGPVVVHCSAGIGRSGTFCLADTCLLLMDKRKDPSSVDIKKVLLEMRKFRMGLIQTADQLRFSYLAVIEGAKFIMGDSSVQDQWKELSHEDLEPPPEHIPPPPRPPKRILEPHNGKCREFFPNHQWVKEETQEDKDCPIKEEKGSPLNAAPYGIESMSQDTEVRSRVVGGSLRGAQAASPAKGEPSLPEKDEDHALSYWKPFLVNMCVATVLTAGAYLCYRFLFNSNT
Excerpt: FIG. 17A N-HSQC spectra of PTP1B (red) and PTP1B bound to abietic acid (blue). Inset: Crystal structure of PTP1B. […] Error bars represent standard error (n>5).
Binding-induced changes in the tryptophan fluorescence of PTP1B. A screen in which inhibition of PTP1B is linked to changes in tryptophan fluorescence (FIG. 21D) will enable rapid screening of moderately sized libraries (10^3-10^4)^27 in microtiter plates. Our use of binding-induced changes in tryptophan fluorescence is described in 5.6.

PTP1B [2] = experiment: Mutational analysis of the inhibitor binding site (fractional change in inhibition); assay type: biochemical, H. sapiens; conditions: FIG. 24C
Excerpt: FIG. 24B illustrates exemplary disruptive mutations introduced at each site. Mutations were designed to alter the size and/or polarity of targeted residues. […] Error bars denote SE (propagated from n≥9 independent measurements of each V in Eq. 1).

PTP1B [3] = biological target: T1, PTP1B; experiment: PTP1B-catalyzed hydrolysis of pNPP in the presence of inhibitor; assay type: biochemical, H. sapiens
Excerpt: FIG. 14A illustrates Abietic acid. […] FIG. 14C illustrates Abietic acid (green) docked in the allosteric site of PTP1B. […] Inset highlights active site in black.
FIG. 16A-B illustrates exemplary terpenoids showing differences in stereochemistry, shape, size, and chemical functionality. FIG. 16A illustrates clockwise from abietic acid (1), neoabietic acid (2), levopimaric acid (3), dihydroabietic acid (4). […] No inhibitor. Error bars=standard error (n>5).
Lines show a fit to a model for mixed inhibition. FIG. 22D an exemplary illustration of this model, where the inhibitor (I) binds to the enzyme (E) and enzyme-substrate complex (ES) with different affinities.
Improved inhibitors. We assessed the ability of minor structural perturbations of abietadiene derivatives to yield improved inhibitors by comparing four structurally related (and commercially available) molecules (FIG. 16): abietic, neoabietic, levopimaric, and dihydroabietic acid.
Statistical Analysis of Kinetic Models. We evaluated four kinetic models of inhibition as described previously (19). In brief, we used an F-test to compare a two-parameter mixed model to several single-parameter models, and we used Akaike's Information Criterion (AIC, or Ai) to compare the single-parameter models to one another. […] Exemplary Estimation of IC50. […]

Row | Structure (SMILES) | concentration detected by change in tryptophan fluorescence of PTP1B (PTP1B [1]) [µM] | effect of five mutations distributed across PTP1B on inhibition (PTP1B [2]) | Ki (PTP1B [3]; commercially available abietane-type acids, FIG. 16, read-out: K, (inhibition of PTP1B)) [µM] | inhibition relative to abietic acid (PTP1B [3])
1 | CC(C)C1=CC2=CC[C@@H]3[C@](C)(CCC[C@@]3(C)C(=O)O)[C@H]2CC1 [abietic acid] | 50 | reduced inhibition | 250 | –
2 | CCc1oc2cc(S(=O)(=O)Nc3ccc(S(=O)(=O)Nc4nccs4)cc3)ccc2c1C(=O)c1cc(Br)c(O)c(Br)c1 [BBR, 3-(3,5-Dibromo-4-hydroxy-benzoyl)-2-ethyl-benzofuran-6-sulfonicacid-(4-(thiazol-2-ylsulfamyl)-phenyl)-amide] | – | negligible effect | – | –
3 | CC(C)C1C=C2CCC3C(C)(C(=O)O)CCCC3(C)C2CC1 (stereo not drawn) [dihydroabietic acid] | – | – | – | ten times more inhibitory than abietic acid
4 | Cl.O=C(O)C(=O)Nc1sc2c(c1C(=O)O)CCNC2 [TCS401, 2-[(Carbox-ycarbonyl)amino]-4,5,6,7-tetrahydro-thieno[2,3-c]pyridine-3-carboxylic acid hydrochloride] | – | reduced inhibition | – | –
